According to ChEMBL document CHEMBL1201862, “PubChem BioAssay data set” (2004):
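Grown in 96-well plates, cells were treated for 48 hours with each compound at five concentrations. Insufficient inhibition: endpoint recorded as highest concentration tested. At the GI50, growth is halved.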 The source made the active and inactive calls. No stated cut-off is given here; in the data, active = GI50 up to about 1.1 µM and inactive = higher. Where a SMILES comes first, the peptide text is derived from it. The star is where a group is joined. ONb = O=[N+]([O-])c1ccc(CO*)cc1; Boc = CC(C)(C)OC(=O)*

Experiments:
Test in all cases: NCI-60 cell line screen, 48 h
[1] = system: UACC-257
[2] = system: OVCAR-5
[3] = system: MDA-MB-435
[4] = system: SF-295
[5] = system: OVCAR-3
[6] = system: MDA-N
[7] = system: HCT-116
[8] = system: SF-539
[9] = system: HCC 2998
[10] = system: UACC-62
[11] = system: MOLT-4
[12] = system: OVCAR-4
[13] = system: EKVX
[14] = system: 786-0
[15] = system: PC-3
[16] = system: SNB-75
[17] = system: UO-31
[18] = system: SK-MEL-2
[19] = system: RXF 393
[20] = system: K562

Measured: GI50

CCC12CCCN3CCc4c(n(c5ccccc45)C(O)(C(=O)OC)C1)C32 (configuration not stated)
inactive: [1] > 100 µM | [2] > 100 µM | [3] > 100 µM | [4] > 100 µM | [5] > 100 µM | [6] > 100 µM | [7] > 100 µM | [8] > 100 µM | [9] > 100 µM | [10] > 100 µM | [11] > 100 µM | [12] > 100 µM | [13] > 100 µM | [14] > 100 µM | [15] > 100 µM | [16] > 100 µM | [17] > 100 µM | [18] > 100 µM

C=C1[C@@H]2CCC3[C@]4(C)C(CC[C@@]5(C)C(=O)O[C@H](O)[C@@H]45)[C@H](O)[C@]3(C2)[C@H]1OC1OC(CO)C(O)C(O)C1O (some centres not stated)
inactive: [1] > 50 µM | [2] > 50 µM | [4] > 50 µM | [5] > 50 µM | [6] > 50 µM | [7] > 50 µM | [8] > 50 µM | [19] > 50 µM | [10] > 50 µM | [11] 17.4 µM | [12] > 50 µM | [13] > 50 µM | [20] 14.1 µM | [14] > 50 µM | [15] > 50 µM | [16] > 50 µM | [17] > 50 µM | [18] > 50 µM

CCOC(=O)c1cc2c3c(c(C(C)=O)c(O)c2[nH]1)N(C(C)=O)CC3
inactive: [1] > 100 µM | [2] > 100 µM | [3] 89.3 µM | [4] 52.7 µM | [5] 34 µM | [6] > 100 µM | [7] 68.4 µM | [8] 48.9 µM | [19] 21.7 µM | [10] 81.3 µM | [11] 27.7 µM | [13] 61 µM | [20] 26.9 µM | [14] > 100 µM | [15] 48.3 µM | [16] > 100 µM | [17] 31.2 µM | [18] > 100 µM

CC1[C@@H](OCc2ccccc2)COC(=O)N1Cc1ccccc1 (some centres not stated)
inactive: [1] 68.4 µM | [2] > 100 µM | [3] > 100 µM | [4] 46.2 µM | [5] > 100 µM | [6] > 100 µM | [7] > 100 µM | [10] > 100 µM | [11] 33.3 µM | [12] 78 µM | [13] 78.9 µM | [20] 60 µM | [14] > 100 µM | [15] 93.8 µM | [16] > 100 µM | [17] 32.7 µM | [18] > 100 µM

COc1ccc(C2SCC(=O)N2NC(=O)c2ccc(NC(C)=O)cc2)cc1 (configuration not stated)
inactive: [1] > 100 µM | [2] > 100 µM | [3] > 100 µM | [4] > 100 µM | [5] > 100 µM | [6] > 100 µM | [7] > 100 µM | [8] > 100 µM | [9] > 100 µM | [19] > 100 µM | [10] > 100 µM | [11] > 100 µM | [12] > 100 µM | [13] > 100 µM | [20] > 100 µM | [14] > 100 µM | [16] > 100 µM | [17] > 100 µM | [18] > 100 µM

COC(=O)C1(Cc2ccc3c(c2)CCC3)Cc2ccccc2C1=O (configuration not stated)
inactive: [1] 18.5 µM | [2] 26.4 µM | [3] 2.97 µM | [4] 9.98 µM | [5] 14.5 µM | [6] 2.72 µM | [7] 7.8 µM | [8] 16 µM | [9] 14.6 µM | [10] 8.43 µM | [11] 4.45 µM | [12] 26.2 µM | [13] 17.3 µM | [20] 3.31 µM | [14] 24.5 µM | [15] 7.69 µM | [16] 10.8 µM | [17] 17.1 µM | [18] 13.2 µM

CSc1nncc2[nH]cnc12
inactive: [1] > 100 µM | [2] > 100 µM | [3] > 100 µM | [4] > 100 µM | [5] > 100 µM | [6] > 100 µM | [7] > 100 µM | [8] > 100 µM | [19] > 100 µM | [10] > 100 µM | [11] > 100 µM | [13] > 100 µM | [20] > 100 µM | [14] > 100 µM | [15] > 100 µM | [16] > 100 µM | [17] > 100 µM | [18] > 100 µM

Cc1oc2c(c1C)S(=O)(=O)C(C#N)=C(c1ccccc1)N2
inactive: [1] > 100 µM | [2] > 100 µM | [3] > 100 µM | [4] > 100 µM | [5] > 100 µM | [6] > 100 µM | [8] > 100 µM | [9] > 100 µM | [10] > 100 µM | [11] > 100 µM | [12] > 100 µM | [13] > 100 µM | [20] > 100 µM | [14] > 100 µM | [15] > 100 µM | [16] > 100 µM | [17] > 100 µM | [18] > 100 µM

O=S(=O)(c1ccccc1)n1c(C(O)c2ccccc2)cc2ccccc21 (configuration not stated)
inactive: [1] 16.2 µM | [2] 15.7 µM | [3] 16.6 µM | [4] 16.9 µM | [5] 16.7 µM | [7] 16.5 µM | [8] 16.7 µM | [9] 17.5 µM | [19] 14.3 µM | [10] 12.9 µM | [11] 36.4 µM | [12] 18.1 µM | [13] 17.4 µM | [20] 49.4 µM | [14] 14.1 µM | [15] 15.7 µM | [16] 14.7 µM | [17] 11.7 µM | [18] 17.1 µM

CC(C)(C)n1c(=O)n(-c2ccccc2)n(C(C)(C)C)c1=O
inactive: [1] > 100 µM | [2] > 100 µM | [4] > 100 µM | [5] > 100 µM | [6] > 100 µM | [7] > 100 µM | [8] > 100 µM | [9] > 100 µM | [19] > 100 µM | [10] > 100 µM | [11] > 100 µM | [12] > 100 µM | [13] > 100 µM | [20] > 100 µM | [14] > 100 µM | [15] > 100 µM | [16] 63.1 µM | [17] > 100 µM | [18] > 100 µM

CC(C)CC(NC(=O)OC(C)(C)C)C(=O)NC(CCC(=O)OCc1ccc([N+](=O)[O-])cc1)C(=O)OCc1ccc([N+](=O)[O-])cc1 (stereo not drawn) (Boc-Leu-Glu(ONb)-ONb; configuration not given here)
inactive: [1] 43.8 µM | [2] > 100 µM | [3] > 10 µM | [4] 43.4 µM | [5] 26.6 µM | [6] 44.8 µM | [7] 37.5 µM | [8] 18.7 µM | [9] 23 µM | [10] 28.4 µM | [11] 13 µM | [12] > 100 µM | [13] 49.2 µM | [20] 9.44 µM | [14] 26.1 µM | [15] 27.9 µM | [16] 16.6 µM | [17] 82.6 µM | [18] 22.1 µM
